Literature values as cited in US20050191370A1, “Vitamin/metal salt compositions for reducing hair loss and/or promoting hair regrowth” (L'OREAL, priority 2000, published 2005).

Tested on: lung cancers in smokers

## CC1=C(/C=C/C(C)=C/C=C/C(C)=C/C=C/C=C(C)/C=C/C=C(C)/C=C/C2=C(C)CCCC2(C)C)C(C)(C)CCC1 [beta-carotene]
After 5 years of administration
  decrease in the incidence of lung cancers: No decrease
Men who received beta-carotene, population of 29,139 men who were smokers
  additional deaths: 8%
Men who received beta-carotene, population of 29,139 men who were smokers, Finland
  increase in lung cancers: 18%
